Results on four compounds are retold here after patent publication EP3929178B1, “CRYSTAL FORM OF VALNEMULIN HYDROCHLORIDE HYDRATE, PREPARATION METHOD THEREFOR, AND PHARMACEUTICAL COMPOSITION CONTAINING CRYSTAL FORM” (Hubei Longxiang Pharmaceutical Co., Ltd., priority 2019, dated 2020).

SMILES strings stand for the structures. Where a name gives a salt, the structure may show the parent alone. Read-outs that look alike come from different tables or passages of the source.

The conditions of series [1]: reported for CN108892629A; cited from earlier work.
A short description of series [2]: Influencing factor (stability) experiments on crystal forms under temperature and humidity. To be noted: for content before placement: before placement (baseline of the stability study). The series is classed as physicochemical. How it is done:
Conditions for purity detection by High Performance Liquid Chromatography (HPLC): octadecylsilane-bonded silica gel was used as filler (150 mm×4.6 mm, 3 µm); mobile phase A was phosphate buffer (pH 2.5); mobile phase B was phosphate buffer (pH 2.5)-acetonitrile (25:75); the flow rate was 1.5 ml per minute; the column temperature was 50 °C; and the detection wavelength was 200 nm. Linear gradient elution was performed according to the following table.
Table 1 Comparative study on stability of valnemulin hydrochloride hydrate, amorphous substance and the comparative crystal form

A further series in a line: Bulk density comparison. The series is classed as physicochemical. From the text:
The hydrate crystal and the amorphous substance and the crystal form of patent CN104876841B were compared in terms of bulk density, solubility, ect, as shown in the following table. Table 2 Physicochemical properties comparison of the valnemulin hydrochloride hydrate, the amorphous substance and the Comparative Example

Series [3] in a line: Hygroscopicity experiments. The series is classed as physicochemical. From the text:
Table 1 Comparative study on stability of valnemulin hydrochloride hydrate, amorphous substance and the comparative crystal form The hydrate crystal and the amorphous substance and the crystal form of patent CN104876841B were compared in terms of bulk density, solubility, ect, as shown in the following table. Table 2 Physicochemical properties comparison of the valnemulin hydrochloride hydrate, the amorphous substance and the Comparative Example

A short description of series [4]: Loss on granulation of aqueous solutions of amorphous product. The following applies: granulated at 75 °C. It is filed as physicochemical. An excerpt:
For solid drugs, different solid forms will have an important impact on physical and chemical properties such as stability, solubility, dissolution rate, bulk density and fluidity, resulting in different efficacy and bioavailability during use. Therefore, for solid pharmaceutical products, the development of different solid forms is more conducive to choosing a suitable crystal form according to the characteristics of the pharmaceutical preparation. For valnemulin hydrochloride products, compared with crystalline products, the amorphous products have problems such as poor stability, easy hygroscopicity, poor appearance, poor fluidity, and difficult storage. At the same time, aqueous solutions of amorphous valnemulin hydrochloride products are unstable during preparation process. Experiments have shown that 11.6% loss is caused when granulated at 75 °C. Therefore, there is an urgent need to develop a stable valnemulin hydrochloride crystal product to meet market demand for veterinary drugs. […] There are very few reports on the crystal form of valnemulin hydrochloride and preparation method thereof.

[5] abbreviates: 25 °C, 90% relative humidity, placed for 30 days, hydrochloride.
Setting [6] is: 40 °C, 75% relative humidity, placed for 30 days.
The mark [7] stands for this setting: 40 °C, 75% relative humidity, placed for 30 days, hydrochloride.
Where [8] appears, read: 60 °C, 75% relative humidity, placed for 30 days.
Setting [9] is: 60 °C, 75% relative humidity, placed for 30 days, hydrochloride.
Where [10] appears, read: 60 °C, placed in normal humidity for 30 days, hydrochloride.
Where [11] appears, read: 25 °C, 90% relative humidity, placed for 30 days, listed as The crystal form of valnemulin hydrochloride hydrate (Example 1), hydrochloride hydrate.
Where [12] appears, read: 40 °C, 75% relative humidity, placed for 30 days, listed as The crystal form of valnemulin hydrochloride hydrate (Example 1), hydrochloride hydrate.
Setting [13] is: 60 °C, 75% relative humidity, placed for 30 days, listed as The crystal form of valnemulin hydrochloride hydrate (Example 1), hydrochloride hydrate.
Where [14] appears, read: 60 °C, placed in normal humidity for 30 days, listed as The crystal form of valnemulin hydrochloride hydrate (Example 1), hydrochloride hydrate.
The mark [15] stands for this setting: compared with the original amorphous product.

Take `C=C[C@]1(C)C[C@@H](OC(=O)CSC(C)(C)CNC(=O)[C@H](N)C(C)C)[C@]2(C)[C@H](C)CC[C@]3(CCC(=O)[C@H]32)[C@@H](C)[C@@H]1O` [solvent-free compound, valnemulin hydrochloride]: the Bulk density in series [1] was 0.305 g/mL.
`C=C[C@]1(C)C[C@@H](OC(=O)CSC(C)(C)CNC(=O)[C@H](N)C(C)C)[C@]2(C)[C@H](C)CC[C@]3(CCC(=O)[C@H]32)[C@@H](C)[C@@H]1O` [The crystal form of Comparative Example, valnemulin hydrochloride]: the Appearance change result in series [2] (setting [5]) is given as “White solid”; in series [2] (setting [7]), “White solid”; in series [2] (setting [9]) it was “Light yellow solid”; in series [2] (setting [10]), “Light yellow solid”. Also, the “Content after placement (%)” value in series [2] (setting [5]) was determined as 99.21%; in series [2] (setting [7]), 99.18%; in series [2] (setting [9]), 98.69%; in series [2] (setting [10]) it was 98.39%. Also, the Crystal form change result is “Slight change” in series [2] (setting [5]), “No change” in series [2] (setting [6]), “No change” in series [2] (setting [8]) and “No change” in series [2] (setting [10]). In addition, in “Bulk density comparison” (hydrochloride), the Bulk density amounted to 0.636 g/mL. In addition, the “With or without hygroscopicity” value in series [3] (setting [5]), in series [3] (setting [7]), in series [3] (setting [9]) and in series [3] (setting [10]) was “Slightly” each time. Besides, the hygroscopicity is 1.015% in series [3] (Table 2, hydrochloride) and “slightly hygroscopic” in series [3] (summary in words of Table 1, listed as The crystal form of patent CN104876841B, hydrochloride).
For `C=C[C@]1(C)C[C@@H](OC(=O)CSC(C)(C)CNC(=O)[C@H](N)C(C)C)[C@]2(C)[C@H](C)CC[C@]3(CCC(=O)[C@H]32)[C@@H](C)[C@@H]1O` [The amorphous substance of valnemulin hydrochloride], the Appearance change result in series [2] (setting [5]) is “Yellow transparent viscous solid”; in series [2] (setting [7]) it was “Yellow transparent viscous solid”; in series [2] (setting [9]) it was “Yellow”; in series [2] (setting [10]), “Yellow solid”. The “Content after placement (%)” value turned out to be 94.56% in series [2] (setting [5]), 90.82% in series [2] (setting [7]), 86.12% in series [2] (setting [9]) and 89.18% in series [2] (setting [10]). For the same compound, the content before placement in series [2] (listed as valnemulin hydrochloride amorphous substance, hydrochloride) stood at 97.50%. Besides, the loss when granulated in series [4] is reported as 11.6%. For the same compound, the Bulk density in the series “Bulk density comparison” (hydrochloride) turned out to be 0.338 g/mL. The “With or without hygroscopicity” value in series [3] (setting [5]) was “Severe hygroscopic ity”; in series [3] (setting [7]), “Severe hygroscopic ity”; in series [3] (setting [9]), “Severe hygroscopic ity”; in series [3] (setting [10]), “Hygroscopi city”. Moreover, the hygroscopicity is recorded as 8.86% in series [3] (Table 2, hydrochloride) and “absorbed moisture severely” in series [3] (summary in words of Table 1, hydrochloride).
With `C=C[C@]1(C)C[C@@H](OC(=O)CSC(C)(C)CNC(=O)[C@H](N)C(C)C)[C@]2(C)[C@H](C)CC[C@]3(CCC(=O)[C@H]32)[C@@H](C)[C@@H]1O` [Example 1, valnemulin hydrochloride hydrate], the Appearance change entry in series [2] (setting [11]), in series [2] (setting [12]), in series [2] (setting [13]) and in series [2] (setting [14]) was “White solid” throughout. The “Content after placement (%)” value in series [2] (setting [11]) came out at 99.23%; in series [2] (setting [12]), 99.20%; in series [2] (setting [13]) it was 98.78%; in series [2] (setting [14]) it was 98.47%. Further, the Crystal form change result in series [2] (setting [11]) is reported as “No change”; in series [2] (setting [6]), “No change”; in series [2] (setting [8]), “No change”; in series [2] (setting [14]), “No”. Besides, in series [2] (hydrochloride hydrate), the content before placement is reported as 99.25%. Further, the results for the stability entry in series [2] (setting [15]) and in series [2] (summary in words of Table 1) were “enhanced stability” and “stable”, respectively. The Bulk density result in the series “Bulk density comparison” (setting [15]) was “large bulk density”; in “Bulk density comparison” (listed as The crystal form of valnemulin hydrochloride hydrate (Example 1), hydrochloride hydrate) it was 0.596 g/mL. The “With or without hygroscopicity” value was “Without hygroscopic ity” in series [3] (setting [11]), “Without hygroscopic ity” in series [3] (setting [12]), “Without hygroscopic ity” in series [3] (setting [13]) and “Without” in series [3] (setting [14]). Further, the hygroscopicity is listed as 0% in series [3] (Table 2, listed as The crystal form of valnemulin hydrochloride hydrate (Example 1), hydrochloride hydrate) and “no hygroscopicity” in series [3] (setting [15]).
